In US9573983B2, “Compositions including I-domain antigen conjugate compounds and methods for treatment of autoimmune disorders” (University of Kansas, priority 2012, dated 2017):

Assays:
[1] = Solubility of peptide during conjugation; assay type: physicochemical; conditions: conjugation reaction mixture; peptide dissolved in DMSO before addition
EAE mouse model [2] = assay: Suppression of EAE, prophylactic and vaccine-like treatment (Example 2); assay type: in vivo, SJL/J female mice
Description: Six-to-eight week old SJL/J female mice were immunized subcutaneously with 200 μg PLP139-151 peptide in a 0.2 ml emulsion consisting of equal volumes of PBS and complete Freund's adjuvant (CFA) containing killed mycobacterium tuberculosis strain H37RA at a final concentration of 4 mg/ml (Difco, Detroit, Mich.). The PLP/CFA emulsion was administered to regions above the shoulder and the flanks (total of 4 sites, 50 μl at each injection site). In addition, 200 ng of pertussis toxin was injected intraperitoneally on the day of immunization (day 0) and 2 days post-immunization.
The mice then received either intravenous or subcutaneous injections of IDAC (10 or 26 nmol/injection) or peptides (100 nmol/injection for Ac-PLP-BPI-NH2-2 or 50 nmol/injection/mouse for Ac-PLP-cIBR1-NH2). The prophylactic disease suppression was carried out with subcutaneous or intravenous injections of IDAC molecules on days 4 and 7, or BPI molecules on days 4, 7, and 10. Mice receiving vaccine-like treatment were given subcutaneous injections of IDAC and BPI molecules at 11, 8, and 5 days prior to the induction of disease. As negative controls, mice were treated with PBS, 1-domain, and GMB-I-domain. Disease progression was evaluated by monitoring the change in weight of the mice and clinical scoring based on the severity of nerve damage ranging from 0 to 5: 0—no clinical symptoms of disease; 1—tail weakness or limp tail; 2—paraparesis (weakness or partial paralysis of one or two hind limbs); 3—paraplegia (complete paralysis of two hind limbs); 4—paraplegia with forelimb weakness or paralysis; 5—moribund (at this point, the affected mice were euthanized).
Statistical differences among the groups in clinical disease scores were determined by calculating the average score for each mouse from day 12 to day 17 by one-way analysis of variance followed by Fisher's least significant difference. Statistical differences in body weight among groups were also analyzed in the same fashion, but from day 12 to day 24. Comparison of cytokine concentrations was also performed by one-way analysis of variance. All analyses were performed using StatView (SAS Institute, Cary, N.C.).

EAE mouse model [3] = conditions: earlier study (ref. 7); cited from earlier work
mouse EAE model = assay: Suppression of EAE in PLP139-151/CFA-immunized mice (Example 1); assay type: in vivo, female inbred SJL/J mice; conditions: i.v., IDAC 26 nmol/injection days 4, 7, Ac-PLP-BPI-NH2-2 100 nmol/injection days 4, 7, 10, vs PBS
Description: Female inbred SJL/J mice, 5-7 weeks old, were randomly divided into different groups. All mice were immunized with PLP139-151 in Freund's complete adjuvant (CFA) to induce EAE, as reported previously (3, 4). The PLP/CFA emulsion (50 μL per site) was administered to four separate regions above the shoulder and on the flanks. In addition, 200 ng of pertussis toxin (List Biological Laboratories Inc., Campbell, Calif.) was injected intraperitoneally on day 0 and 2.
After disease stimulation, one group of mice received intravenous (i.v.) injections of 26 nmol/injection/day of the conjugate IDAC on days 4 and 7. The second and third groups of mice received i.v. injections of 100 nmol/injection/day of Ac-PLP-BPI-NH2-2 and 100 microliter of PBS, respectively, on days 4, 7, and 10. The animals were weighed and observed daily. Disease progression was evaluated observed using a blinded method as reported previously (3, 4). The clinical scores were rated using the following scale: 0—no clinical signs of disease; 1—tail weakness or limp tail; 2—paraparesis (weakness or incomplete paralysis of one or two hind limbs); 3—paraplegia (complete paralysis of two hind limbs); 4—paraplegia with forelimb weakness or paralysis; and 5—moribund or dead.
Statistical differences among the groups in clinical disease scores were determined by calculating the average score for each mouse from the day of disease onset to day 20 by One-way Analysis of Variance followed by Fisher's least significant difference using StatView (SAS Institute, Cary, N.C.). Statistical differences among the groups in body weight were also analyzed in the same way. The presence of significant difference is denoted with p-values of <0.05 or <0.001.

Row | Substance | solubility [1] | clinical scores (suppression of EAE) (EAE mouse model [2]; vaccine-like s.c. days -11, -8, -5, IDAC-3 10 nmol/injection, Ac-PLP-BPI-NH2-2 100 nmol/injection, vs PBS, p<0.005, days 12-17) | change in body weight (EAE mouse model [2]; vaccine-like s.c. days -11, -8, -5, IDAC-3 10 nmol/injection, Ac-PLP-BPI-NH2-2 100 nmol/injection, vs PBS, p<0.005, days 12-24) | onset of disease (incidence of disease) (EAE mouse model [2]; vaccine-like s.c., IDAC-3 26 nmol/injection days -11, -8, Ac-PLP-BPI-NH2-2 100 nmol/injection days -11, -8, -5) | relapse of disease (long-term effect) (EAE mouse model [2]; vaccine-like s.c., IDAC-3 26 nmol/injection days -11, -8, Ac-PLP-BPI-NH2-2 100 nmol/injection days -11, -8, -5, days 45-55) | suppression of EAE, capped vs uncapped peptide (EAE mouse model [3]) | clinical disease scores (suppression of EAE) (mouse EAE model; p<0.0001, days 12-17) | incidence of disease (mouse EAE model; p<0.0001, days 12-24)
1 | Ac-GWYRSPFSRVVHLC-NH2 [MOG-Cys, Ac-GWYRSPFSRVVHLC-NH2] | low solubility | – | – | – | – | – | – | –
2 | Ac-HSLGKWLGHPDKF-(AcpGAcpGAcp)2-ITDGEATDSG-NH2 [Ac-PLP-BPI-NH2-2, reference compound] | – | significantly suppressed EAE compared to PBS | significantly suppressed EAE compared to PBS | Delay in the onset of disease | along-term effect to prevent relapse | could suppress EAE better than its uncapped counterpart (PLP-BPI) | complete suppression of the disease | completely eliminated
